± gives the standard deviation of the averaged measurements.
Legend:
MK2206 [1] = compound: T1, NC1(c2ccc(-c3nc4ccn5c(=O)[nH]nc5c4cc3-c3ccccc3)cc2)CCC1 [MK2206]; assay: surviving fraction relative to DMSO-only wells; higher = less growth inhibition; details: exposure time: 5 days
Summary of the method: (§1)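 Continuous five-day exposure to inhibitors at 0.5, 1, 5, 10, 50, 100, 500 and 1000 nM started 24 hours after log-phase tumour cell lines were seeded at 250–500 cells per well in 384-well plates. Luminescence was read after 10 minutes at room temperature. Viability is given as surviving fraction, meaning CellTiter-Glo luminescence normalised to the median of DMSO-only wells.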

ERLOTINIB [2] = compound: T2, C#Cc1cccc(Nc2ncnc3cc(OCCOC)c(OCCOC)cc23)c1 [ERLOTINIB]; assay: as above; details: exposure time: 5 days
Summary of the method: as §1

METHOTREXATE [3] = compound: T3, CN(Cc1cnc2nc(N)nc(N)c2n1)c1ccc(C(=O)N[C@@H](CCC(=O)O)C(=O)O)cc1 [METHOTREXATE]; assay: as above; details: exposure time: 5 days
Summary of the method: as §1

EVEROLIMUS [4] = compound: T4, CO[C@H]1C[C@@H]2CC[C@@H](C)[C@@](O)(O2)C(=O)C(=O)N2CCCC[C@H]2C(=O)O[C@H]([C@H](C)C[C@@H]2CC[C@@H](OCCO)[C@H](OC)C2)CC(=O)[C@H](C)/C=C(\C)[C@@H](O)[C@@H](OC)C(=O)[C@H](C)C[C@H](C)/C=C/C=C/C=C/1C [EVEROLIMUS]; assay: as above; details: exposure time: 5 days
Summary of the method: as §1

MK2206 [5] = compound: T1, MK2206; assay: area under dose-response curve of surviving fraction (unscaled, Aref=0) (surviving fraction x log10(nM)); higher = more resistant; details: exposure time: 5 days; dose range 0.5-1000 nM
Summary of the method: (§2)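 Surviving fractions were fitted by 3-parameter logistic regression in the drc R package to give dose-response survival curves. They came from tumour cell lines treated for five days with eight inhibitor concentrations from 0.5 to 1000 nM and read by CellTiter-Glo luminescence against DMSO-only wells. The area under the curve is the unscaled activity area. It was calculated over log10 dose with Aref = 0.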

GEMCITABINE = compound: Nc1ccn([C@@H]2O[C@H](CO)[C@@H](O)C2(F)F)c(=O)n1 [GEMCITABINE]; assay: as above; details: exposure time: 5 days; dose range 0.5-1000 nM
Summary of the method: as §2

ERLOTINIB [6] = compound: T2, ERLOTINIB; assay: as above; details: exposure time: 5 days; dose range 0.5-1000 nM
Summary of the method: as §2

METHOTREXATE [7] = compound: T3, METHOTREXATE; assay: as above; details: exposure time: 5 days; dose range 0.5-1000 nM
Summary of the method: as §2

EVEROLIMUS [8] = compound: T4, EVEROLIMUS; assay: as above; details: exposure time: 5 days; dose range 0.5-1000 nM
Summary of the method: as §2

AZD4547 = compound: COc1cc(CCc2cc(NC(=O)c3ccc(N4CC(C)NC(C)C4)cc3)n[nH]2)cc(OC)c1 [AZD4547]; assay: as above; details: exposure time: 5 days; dose range 0.5-1000 nM
Summary of the method: as §2

PLX-4720 = compound: CCCS(=O)(=O)Nc1ccc(F)c(C(=O)c2c[nH]c3ncc(Cl)cc23)c1F [PLX-4720]; assay: as above; details: exposure time: 5 days; dose range 0.5-1000 nM
Summary of the method: as §2

SUNITINIB = compound: CCN(CC)CCNC(=O)c1c(C)[nH]c(/C=C2\C(=O)Nc3ccc(F)cc32)c1C [SUNITINIB]; assay: as above; details: exposure time: 5 days; dose range 0.5-1000 nM
Summary of the method: as §2

ETOPOSIDE = compound: COc1cc([C@@H]2c3cc4c(cc3[C@@H](O[C@@H]3O[C@@H]5CO[C@@H](C)O[C@H]5[C@H](O)[C@H]3O)[C@H]3COC(=O)[C@H]23)OCO4)cc(OC)c1O [ETOPOSIDE]; assay: as above; details: exposure time: 5 days; dose range 0.5-1000 nM
Summary of the method: as §2

[9] = compound: O=C(NOCC1CC1)c1ccc(F)c(F)c1Nc1ccc(I)cc1Cl; assay: as above; details: exposure time: 5 days; dose range 0.5-1000 nM
Summary of the method: as §2

VINORELBINE = compound: CCC1=C[C@@H]2CN(C1)Cc1c([nH]c3ccccc13)[C@@](C(=O)OC)(c1cc3c(cc1OC)N(C)[C@H]1[C@@](O)(C(=O)OC)[C@H](OC(C)=O)[C@]4(CC)C=CCN5CC[C@]31[C@@H]54)C2 [VINORELBINE]; assay: as above; details: exposure time: 5 days; dose range 0.5-1000 nM
Summary of the method: as §2

[10] = compound: Cc1nc(Nc2n[nH]c3c2CN(C(=O)N[C@H](CN(C)C)c2ccccc2)C3(C)C)c2sccc2n1; assay: as above; details: exposure time: 5 days; dose range 0.5-1000 nM
Summary of the method: as §2

For CCK81 LARGE INTESTINE, the surviving fraction (MK2206 [1]; 0.5 nM) was 0.868 ± 0.21, the surviving fraction (MK2206 [1]; 1 nM) was 0.793 ± 0.089 and the surviving fraction (MK2206 [1]; 5 nM) was 0.751 ± 0.14. It also gave a surviving fraction (MK2206 [1]; 10 nM) of 0.809 ± 0.053, a surviving fraction (MK2206 [1]; 50 nM) of 0.728 ± 0.075 and a surviving fraction (MK2206 [1]; 100 nM) of 0.798 ± 0.098. The surviving fraction (MK2206 [1]; 500 nM) was 0.944 ± 0.13, the surviving fraction (MK2206 [1]; 1000 nM) was 0.806 ± 0.049 and the surviving fraction (ERLOTINIB [2]; 0.5 nM) was 0.779 ± 0.2. It also gave a surviving fraction (ERLOTINIB [2]; 5 nM) of 0.794 ± 0.077, a surviving fraction (ERLOTINIB [2]; 10 nM) of 0.774 ± 0.13 and a surviving fraction (ERLOTINIB [2]; 50 nM) of 0.774 ± 0.11. For the same test system, the surviving fraction (ERLOTINIB [2]; 100 nM) was 0.749 ± 0.065, the surviving fraction (ERLOTINIB [2]; 500 nM) was 0.19 ± 0.012 and the surviving fraction (ERLOTINIB [2]; 1000 nM) was 0.78 ± 0.031. It also gave a surviving fraction (METHOTREXATE [3]; 0.5 nM) of 0.75 ± 0.13, a surviving fraction (METHOTREXATE [3]; 1 nM) of 0.843 ± 0.061 and a surviving fraction (METHOTREXATE [3]; 5 nM) of 0.716 ± 0.15. For the same test system, the surviving fraction (METHOTREXATE [3]; 10 nM) was 0.697 ± 0.029, the surviving fraction (METHOTREXATE [3]; 50 nM) was 0.701 ± 0.054 and the surviving fraction (METHOTREXATE [3]; 100 nM) was 0.663 ± 0.083. The surviving fraction (METHOTREXATE [3]; 500 nM) was 0.697 ± 0.077, the surviving fraction (METHOTREXATE [3]; 1000 nM) was 0.714 ± 0.095 and the surviving fraction (EVEROLIMUS [4]; 0.5 nM) was 0.812 ± 0.075. It also gave a surviving fraction (EVEROLIMUS [4]; 1 nM) of 0.754 ± 0.031, a surviving fraction (EVEROLIMUS [4]; 5 nM) of 0.701 ± 0.11 and a surviving fraction (EVEROLIMUS [4]; 10 nM) of 0.711 ± 0.14. For the same test system, the surviving fraction (EVEROLIMUS [4]; 50 nM) was 0.715 ± 0.041, the surviving fraction (EVEROLIMUS [4]; 100 nM) was 0.756 ± 0.048 and the surviving fraction (EVEROLIMUS [4]; 500 nM) was 0.551 ± 0.1. The surviving fraction (EVEROLIMUS [4]; 1000 nM) was 0.5123 ± 0.004, the “area under dose-response curve” value (MK2206 [5]) was 2.67 and the “area under dose-response curve” value (GEMCITABINE) was 1.48. For the same test system, the “area under dose-response curve” value (ERLOTINIB [6]) was 2.36, the “area under dose-response curve” value (METHOTREXATE [7]) was 2.37 and the “area under dose-response curve” value (EVEROLIMUS [8]) was 2.28.
With HS57T LUNG the “area under dose-response curve” value (AZD4547) was 2.66, the “area under dose-response curve” value (MK2206 [5]) was 3.09 and the “area under dose-response curve” value (GEMCITABINE) was 1.27. The “area under dose-response curve” value (PLX-4720) was 3.1, the “area under dose-response curve” value (SUNITINIB) was 2.84 and the “area under dose-response curve” value (ETOPOSIDE) was 2.88. The “area under dose-response curve” value [9] was 2.83, the “area under dose-response curve” value (ERLOTINIB [6]) was 3.44 and the “area under dose-response curve” value (METHOTREXATE [7]) was 2.04. For the same test system, the “area under dose-response curve” value (EVEROLIMUS [8]) was 1.54, the “area under dose-response curve” value (VINORELBINE) was 1.21 and the “area under dose-response curve” value [10] was 1.13.

Source: the supplement of paper PMC6045584
